Data: PubChem BioAssay AID256 (DTP/NCI, 2004)
Several values for one entry are separate records, joined by “and”; a condition that tells them apart may be missing. Equal values may be shown once. Inconclusive results and toxic doses are left out. How the source made its calls: active means survival T/C of 150% or more; inactive means T/C below 125% in these data.

Test system: CD2F1 mice, L1210 leukemia ip, survival T/C
Experiment: NCI In Vivo Anticancer Drug Screen. Data for tumor model L1210 Leukemia (intraperitoneal) in CD2F1 (CDF1) mice
Settings: higher = longer survival
In short: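 Mice carrying a transplanted tumor received test compound or vehicle alone. The value is the measurement in the treated group divided by that in the vehicle-treated control group.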

[1] = endpoint: mean survival time, dose: 100.0 mg/kg/injection, schedule: Q01DX009 (ip), vehicle: saline with Tween-80
[2] = endpoint: mean survival time, dose: 100.0 mg/kg/injection, schedule: Q04DX002 (ip), vehicle: saline with Tween-80
[3] = endpoint: mean survival time, dose: 200.0 mg/kg/injection, schedule: Q01DX009 (ip), vehicle: saline with Tween-80
[4] = endpoint: mean survival time, dose: 100.0 mg/kg/injection, schedule: Q04DX003 (ip), vehicle: saline with Tween-80
[5] = endpoint: mean survival time, dose: 200.0 mg/kg/injection, schedule: Q04DX003 (ip), vehicle: saline with Tween-80
[6] = endpoint: mean survival time, dose: 400.0 mg/kg/injection, schedule: Q04DX003 (ip), vehicle: saline with Tween-80

Measured: T/C

COc1ccccc1C(O)(C(=O)OCCSC)c1ccccc1OC
inactive: endpoint: mean survival time, dose: 100.0 mg/kg/injection, schedule: Q04DX003 (ip), vehicle: saline 93 % of control | endpoint: mean survival time, dose: 200.0 mg/kg/injection, schedule: Q04DX003 (ip), vehicle: saline 94 % of control | endpoint: mean survival time, dose: 400.0 mg/kg/injection, schedule: Q04DX003 (ip), vehicle: saline 88 % of control

CP1(=S)CCC(O)(c2ccccc2)CC1 (stereo not drawn)
inactive: endpoint: mean survival time, dose: 25.0 mg/kg/injection, schedule: Q01DX009 (ip), vehicle: saline with Tween-80 101 % of control | endpoint: mean survival time, dose: 25.0 mg/kg/injection, schedule: Q04DX002 (ip), vehicle: saline with Tween-80 91 % of control | endpoint: mean survival time, dose: 50.0 mg/kg/injection, schedule: Q01DX009 (ip), vehicle: saline with Tween-80 89 % of control | endpoint: mean survival time, dose: 50.0 mg/kg/injection, schedule: Q04DX002 (ip), vehicle: saline with Tween-80 91 % of control | [1] 97 % of control | [2] 95 % of control

O=C(NCCSC(=O)Nc1ccccc1)Nc1ccccc1
inactive: [1] 95 % of control | [3] 94 % of control | endpoint: mean survival time, dose: 400.0 mg/kg/injection, schedule: Q01DX009 (ip), vehicle: saline with Tween-80 94 % of control

COCC1C(N)C(C)NC(Cl)C1C#N (stereo not drawn)
inactive: [1] 97 % of control | [4] 95 % of control | [3] 97 % of control | [5] 100 % of control | [6] 100 % of control

CN(C)CC1CN(C)CC(CN(C)C)C1(O)C(C(=O)N(C)C)c1ccccc1 (stereo not drawn)
inactive: endpoint: mean survival time, dose: 75.0 mg/kg/injection, schedule: Q01DX001 (ip), vehicle: other 98 % of control | endpoint: mean survival time, dose: 150.0 mg/kg/injection, schedule: Q01DX001 (ip), vehicle: other 100 % of control | endpoint: mean survival time, dose: 300.0 mg/kg/injection, schedule: Q01DX001 (ip), vehicle: other 98 % of control

CC(C)(C)C(=O)CC(=O)C(C)(C)C.CC(C)(C)C(=O)CC(=O)C(C)(C)C.CC(C)(C)C(=O)CC(=O)C(C)(C)C.[Y]
inactive: [4] 97 % of control | [5] 95 % of control | [6] 91 % of control

CCCCOC(=O)/C=C\C(=O)OC(C)C(=O)OCCCC (stereo not drawn)
inactive: endpoint: median survival time, dose: 50.0 mg/kg/injection, schedule: Q04DX002 (ip), vehicle: saline with Tween-80 100 % of control | endpoint: median survival time, dose: 100.0 mg/kg/injection, schedule: Q04DX002 (ip), vehicle: saline with Tween-80 100 % of control | endpoint: median survival time, dose: 200.0 mg/kg/injection, schedule: Q04DX002 (ip), vehicle: saline with Tween-80 100 % of control | endpoint: median survival time, dose: 400.0 mg/kg/injection, schedule: Q04DX002 (ip), vehicle: saline with Tween-80 88 % of control

Oc1ccccc1Cn1ccnc1
inactive: endpoint: mean survival time, dose: 25.0 mg/kg/injection, schedule: Q01DX009 (ip), vehicle: saline 104 % of control | endpoint: mean survival time, dose: 50.0 mg/kg/injection, schedule: Q01DX009 (ip), vehicle: saline 98 % of control | endpoint: mean survival time, dose: 100.0 mg/kg/injection, schedule: Q01DX009 (ip), vehicle: saline 98 % of control and 103 % of control

COc1ccc(C(=CC2=CC(=O)C3=C(CCCC3)C2=O)c2ccc(OC)cc2)cc1
inactive: endpoint: mean survival time, dose: 100.0 mg/kg/injection, schedule: Q04DX003 (ip), vehicle: saline sonified 96 % of control | endpoint: mean survival time, dose: 200.0 mg/kg/injection, schedule: Q04DX003 (ip), vehicle: saline sonified 100 % of control | endpoint: mean survival time, dose: 400.0 mg/kg/injection, schedule: Q04DX003 (ip), vehicle: saline sonified 97 % of control

Nc1ccc(S(=O)(=O)Nc2cnc3c(Cl)cccc3n2)cc1
inactive: endpoint: median survival time, dose: 100.0 mg/kg/injection, schedule: Q01DX005 (ip), vehicle: DMSO 98 % of control | endpoint: median survival time, dose: 200.0 mg/kg/injection, schedule: Q01DX005 (ip), vehicle: DMSO 98 % of control | endpoint: median survival time, dose: 400.0 mg/kg/injection, schedule: Q01DX005 (ip), vehicle: DMSO 98 % of control | endpoint: median survival time, dose: 800.0 mg/kg/injection, schedule: Q01DX005 (ip), vehicle: DMSO 105 % of control

Oc1ccc2ccccc2c1NC(=S)Nc1ccccc1
inactive: endpoint: mean survival time, dose: 100.0 mg/kg/injection, schedule: Q04DX002 (ip), vehicle: Klucel (hydroxypropylcellulose) (HPC) 97 % of control | endpoint: mean survival time, dose: 200.0 mg/kg/injection, schedule: Q04DX002 (ip), vehicle: Klucel (hydroxypropylcellulose) (HPC) 93 % of control | endpoint: mean survival time, dose: 400.0 mg/kg/injection, schedule: Q04DX002 (ip), vehicle: Klucel (hydroxypropylcellulose) (HPC) 93 % of control

CC(C(=O)O)C1CCC2(C)CCC(=O)C(C)(Cl)C2(O)C1=O (stereo not drawn)
inactive: [2] 96 % of control | endpoint: mean survival time, dose: 200.0 mg/kg/injection, schedule: Q04DX002 (ip), vehicle: saline with Tween-80 100 % of control | endpoint: mean survival time, dose: 400.0 mg/kg/injection, schedule: Q04DX002 (ip), vehicle: saline with Tween-80 100 % of control
